Literature values, collected in patent publication US20240229143A1, “FORMULATION OF PEPTIDE IMMUNOTHERAPIES” (priority 2020, published 2024).

Tests used:
[1] = single amino acid; octanol:water
[2] = single amino acid
[3] = single amino acid; remark: listed apart in the source

NCC(=O)O [Glycine (Gly)]
Log P [1]: −3.25
pl [2]: 5.97
Log D7.4 [3]: −0.22

NC(=O)CC[C@H](N)C(=O)O [Glutamine (Gln)]
Log P [1]: −3.24

N[C@@H](Cc1c[nH]cn1)C(=O)O [Histidine (His)]
Log P [1]: −3.56
pl [2]: 7.59
Log D7.4 [3]: −0.44

CC[C@H](C)[C@H](N)C(=O)O [Isoleucine (Ile)]
Log P [1]: −1.72
pl [2]: 6.20
Log D7.4 [3]: 0.69

NCCCC[C@H](N)C(=O)O [Lysine (Lys)]
Log P [1]: −4.44
pl [2]: 9.74
Log D7.4 [3]: −2.27

N[C@@H](Cc1c[nH]c2ccccc12)C(=O)O [Tryptophan (Trp)]
Log P [1]: −1.75
pl [2]: 5.89
Log D7.4 [3]: 1.46

CSCC[C@H](N)C(=O)O [Methionine (Met)]
Log P [1]: −1.84
pl [2]: 5.74
Log D7.4 [3]: 0.51

N[C@@H](CO)C(=O)O [Serine (Ser)]
pl [2]: 5.68

N[C@@H](Cc1ccccc1)C(=O)O [Phenylalanine (Phe)]
Log P [1]: −1.63
pl [2]: 5.48
Log D7.4 [3]: 1.16

CC(C)[C@H](N)C(=O)O [Valine (Val)]
Log P [1]: −2.08
pl [2]: 5.96
Log D7.4 [3]: 0.32

N[C@@H](CS)C(=O)O [Cysteine (Cys)]
pl [2]: 5.07

N[C@@H](CCC(=O)O)C(=O)O [Glutamic Acid (Glu)]
Log P [1]: −2.94
pl [2]: 3.22
Log D7.4 [3]: −2.19

NC(=O)C[C@H](N)C(=O)O [Asparagine (Asn)]
Log P [1]: −3.41
pl [2]: 5.41
Log D7.4 [3]: −0.98

N[C@@H](CC(=O)O)C(=O)O [Asparic Acid (Asp)]
Log P [1]: −3.38
pl [2]: 2.77
Log D7.4 [3]: −2.06

N=C(N)NCCC[C@H](N)C(=O)O [Arginine (Arg)]
pl [2]: 10.76
Log D7.4 [3]: −1.65

C[C@@H](O)[C@H](N)C(=O)O [Threonine (Thr)]
Log P [1]: −2.92
pl [2]: 5.60
Log D7.4 [3]: −0.26

N[C@@H](Cc1ccc(O)cc1)C(=O)O [Tyrosine (Tyr)]
pl [2]: 5.66

C[C@H](N)C(=O)O [Alanine (Ala)]
Log P [1]: −2.89
pl [2]: 6.00
Log D7.4 [3]: −0.27

O=C(O)[C@@H]1CCCN1 [Proline (Pro)]
Log P [1]: −2.50
pl [2]: 6.30
Log D7.4 [3]: 0.15

CC(C)C[C@H](N)C(=O)O [Leucine (Leu)]
Log P [1]: −1.61
